Results taken from patent US12390449B2, “Substituted 2-aminobenzimidazoles analogs as antibiofilm agents” (priority 2018, dated 2025).
“Also recorded” adds a separate entry of the source. Structures can show the parent of a compound that is named as a salt. Where two headings read alike, the source gives them in different places.

Tests used:
[1] = tested on: Salmonella typhimurium ATCC14028 Biofilms; assay: Inhibitory effect of test compounds on Salmonella typhimurium ATCC14028 biofilms (crystal violet, 96-well); format: cell-based
Experimental: Procedure to Determine the Inhibitory Effect of Test Compounds on Salmonella typhimurium ATCC14028 Biofilms: […] Stock solutions of predetermined concentrations of the test compounds were then made in 1 mL of bacterial culture. […] Sample plates were then incubated for 24 h at 30° C. After incubation, the medium was discarded from the wells and the plates were washed thoroughly with water. Plates were then stained with 110 μL of 0.1% solution of crystal violet (CV) and then incubated at ambient temperature for 30 min. Plates were washed with water again and the remaining stain was solubilized with 200 μL of 95% ethanol. A sample of 125 μL of solubilized CV stain from each well was transferred to the corresponding wells of a polystyrene microtiter dish. Biofilm inhibition was quantitated by measuring the OD540 of each well in which a negative control lane wherein no biofilm was formed served as a background and was subtracted out.

[2] = tested on: Galleria mellonella larvae; assay: Toxicity assay in Galleria mellonella larvae; format: in vivo; settings: 400 mg kg^−1
Experimental: FIGS. 5A-5B show representative toxicity data obtained for a representative disclosed compound. […] Briefly, S. typhimurium (JSG210) was grown in the presence of a representative disclosed compound, compound M4, present at a concentration of 10 μM for 24 hours, followed by determination of viability measured by drip plating at T=0, 2, 5, 15, 20, 24 hours. 3 biological replicates were tested. […] Briefly, a representative disclosed compound, compound M4, was injected into last left proleg of Galleria mellonella larvae at 400 mg/kg and assessed at 24-hour intervals over 5 days. The study was repeated 3 times using 10 larvae per experiment group.
Toxicity was measured by drip plating and counting cfu/mL.

[3] = tested on: S. typhimurium ATCC 14028; assay: Growth curves, planktonic bacterial growth; format: cell-based; settings: at their IC50 values; hydrochloride
Experimental: Growth Curves: S. typhimurium was grown overnight in TSB, and this culture was used to inoculate fresh 1:20 TSB (OD600=0.08). Inoculated medium was aliquoted (3 mL) into culture tubes, and compound was added, with untreated inoculated medium serving as the control. Tubes were incubated at 30° C. with shaking. Samples were taken at 2, 4, 6, 8, and 24 h time points, serially diluted in fresh 1:20 TSB, and plated on nutrient agar. Plates were incubated at 37° C. overnight in stationary conditions, and the number of colonies was enumerated.

[4] = Salmonella enterica, 24 h, read-out: IC50 (μM), inhibition of biofilm formation, S. typhimurium ATCC14028, 24 h at 30° C., crystal violet OD540
[5] = read-out: IC50 (μM), inhibition of biofilm formation, S. typhimurium ATCC14028, 24 h at 30° C., crystal violet OD540, hydrochloride

Structure (SMILES)	IC50 [1, 4]	further results
Cl.Nc1nc2cc(NC(=O)c3cc(Cl)cc(Cl)c3)ccc2n1CCCc1ccccc1 [Compound 10e, N-(2-Amino-1-(3-phenylpropyl)-1H-benzo[d]imidazol-5-yl)-3,5-dichlorobenzamide hydrochloride]	10 to 15 µM	IC50 [1, 5]: 13.3 ± 0.49 µM; toxicity to G. mellonella [2]: no toxicity
Cl.Nc1nc2cc(NC(=O)c3ccc(Cl)c(Cl)c3)ccc2n1CCCc1ccccc1 [Compound 10d, N-(2-Amino-1-(3-phenylpropyl)-1H-benzo[d]imidazol-5-yl)-3,4-dichlorobenzamide hydrochloride]	< 7 µM	IC50 [1, 5]: 6.3 ± 1.29 µM; IC50 ([1]; read-out: IC50 (μM), inhibition of biofilm formation, S. typhimurium ATCC14028, 24 h at 30° C., crystal violet OD540, listed as 15d, hydrochloride): 6.3 ± 1.29 µM; toxicity to G. mellonella [2]: no toxicity
CCCCCOc1ccc(C(=O)Nc2ccc3c(c2)nc(N)n3CCCc2ccccc2)cc1.Cl [Compound 10a, N-(2-Amino-1-(3-phenylpropyl)-1H-benzo[d]imidazol-5-yl)-4-pentoxybenzamide hydrochloride]	5.22 ± 0.11 µM	toxicity to planktonic bacterial growth [3]: no toxicity; also recorded: non-toxic
Cl.Nc1nc2cc(NC(=O)Nc3ccc(Cl)c(Cl)c3)ccc2n1CCCc1ccccc1 [Compound 20, 1-(2-Amino-1-(3-phenylpropyl)-1H-benzo[d]imidazol-5-yl)-3-(3,4-dichlorophenyl)urea hydrochloride]	7.69 ± 0.25 µM	toxicity to planktonic bacterial growth [3]: no toxicity; also recorded: non-toxic
CCCCCCCc1ccc(C(=O)Nc2ccc3c(c2)nc(N)n3CCCc2ccccc2)cc1 [Compound 10m, N-(2-Amino-1-(3-phenylpropyl)-1H-benzo[d]imidazol-5-yl)-4-heptylbenzamide hydrochloride]	15 to 20 µM	
CCCOc1ccc(C(=O)Nc2ccc3c(c2)nc(N)n3CCCc2ccccc2)cc1 [Compound 10g, N-(2-Amino-1-(3-phenylpropyl)-1H-benzo[d]imidazol-5-yl)-4-propoxybenzamide hydrochloride]	10 to 15 µM	
Nc1nc2cc(C(=O)Nc3ccc(Cl)c(Cl)c3)ccc2n1CCCc1ccccc1 [Compound 15, 2-Amino-N-(3,4-dichlorophenyl)-1-(3-phenylpropyl)-1H-benzo[d]imidazole-5-carboxamide hydrochloride]	12.6 ± 1.8 µM	
CCCCCc1ccc(C(=O)Nc2ccc3nc(N)n(C)c3c2)cc1 [Compound 9c, N-(2-Amino-1-methyl-1H-benzo[d]imidazol-6-yl)-4-pentylbenzamide hydrochloride]	20 to 40 µM	
CCCCCc1ccc(C(=O)Nc2ccc3c(c2)nc(N)n3CCCC)cc1 [Compound 5f, N-(2-Amino-1-butyl-1H-benzo[d]imidazol-5-yl)-4-pentylbenzamide hydrochloride]	15 to 20 µM	
CCCCCCC(=O)Nc1ccc2c(c1)nc(N)n2CCCc1ccccc1 [Compound 10p, N-(2-Amino-1-(3-phenylpropyl)-1H-benzo[d]imidazol-5-yl)heptanamide hydrochloride]	20 to 40 µM	
CCCCCCCCCCC(=O)Nc1ccc2c(c1)nc(N)n2CCCc1ccccc1 [Compound 10i, N-(2-Amino-1-(3-phenylpropyI)-1H-benzo[d]imidazol-5-yhundecanamide hydrochloride]		IC50 ([1]; read-out: IC50 (μM), inhibition of biofilm formation, S. typhimurium ATCC14028, 24 h at 30° C., crystal violet OD540): 10 to 15 µM
CCc1ccc(C(=O)Nc2ccc3c(c2)nc(N)n3CCCc2ccccc2)cc1 [Compound 10o, N-(2-Amino-1-(3-phenylpropyl)-1H-benzo[d]imidazol-5-yl)-4-ethylbenzamide hydrochloride]	20 to 40 µM	
Nc1nc2cc(NC(=O)c3ccc(Br)c(Br)c3)ccc2n1CCCc1ccccc1 [Compound 10b, N-(2-Amino-1-(3-phenylpropyl)-1H-benzo[d]imidazol-5-yl)-3,4-dibromobenzamide hydrochloride]	< 7 µM	IC50 ([1]; read-out: IC50 (μM), inhibition of biofilm formation, S. typhimurium ATCC14028, 24 h at 30° C., crystal violet OD540, listed as 15b, hydrochloride): 5.38 ± 0.79 µM
